Patent US20060035964A1, “Hypoglycemic agent, liver protecting agent and anticancer agent containing lignans originating in hongdoushan” (priority 2002, published 2006)
In brackets after ≈: the same amount, converted by molar mass.

Assays:
[1] = test system: human HT-1080 fibrosarcoma cells; test: Antiproliferative activity against cultured cancer cells (MTT), HT-1080; type: cell-based; conditions: for IC50: Homo sapiens, HT-1080, average of 4 wells
Procedure: (§1) Compounds of lignans and hongdoushan fractions were tested for their antiproliferative activity against human HT-1080 fibrosarcoma cells and murine colon 26-L5 carcinoma cells. Human HT-1080 fibrosarcoma cells were cultured in the EMEM medium supplemented with 10% FCS (heat-inactivated fetal calf serum) and 0.1% sodium bicarbonate, and 2 mM glutamine. On the other hand, murine colon 26-L5 carcinoma cells were cultured in the RPMI medium containing the same supplements as in the EMEM medium. Cell viability was determined by means of MTT(3-(4,5-dimethylthiazol-2-yl)-2,5-[…] bromide).
(§2) The cells were cultured in a 96-well plate, which was supplemented with a cell suspension medium solution. In this case, each well had approximately 2,000 cells in 100 μL. The cells grew exponentially during the cultivation.
(§3) Twenty four hours later, when the cells adhered to the plate, the medium solution was removed, and then the cells were treated with a test compound medium solution (100 μL) at various concentrations (100 μg/mL, 50 μg/mL, 10 μg/mL, 5 μg/mL, and 1 μg/mL). The cells were cultured at 37° C. under 5% CO2. In this case, the test compounds were first dissolved in DMSO and then diluted in the medium. The concentration of DMSO was adjusted to be finally below 0.25%.
(§4) Next, the medium solution was removed, and the dissolved MTT (100 μL) was added to the medium. After three-hour incubation of the cells, the amount of the formazan formed was measured spectrophotometrically at 550 nm with a plate reader HTS-7000 (manufactured by Perkin Elmer).

[2] = test system: murine colon 26-L5 carcinoma cells; test: Antiproliferative activity against cultured cancer cells (MTT), colon 26-L5; type: cell-based; conditions: for IC50: Mus musculus, average of 4 wells
Procedure: as §1, §2, §3, §4

[3] = test system: primary cultured mouse hepatocytes; test: Inhibitory activity on TNF-α-induced cell death in primary cultured mouse hepatocytes (MTT); type: cell-based; conditions: D-galactosamine 0.5 mM + TNF-α 100 ng/mL; compounds at 200, 100, 50 and 10 μM; 18 hours; compared with Control
Procedure: Hepatic parenchymal cells were separated from the lives of male mice of ddY strains by means of a collagenase recirculation method. The separated hepatic parenchymal cells were suspended in the William's E culture medium, which was supplemented with 10% calf blood serum, 100 IU/mL penicillin G, 100 µg/mL streptomycin, 100 μM dexamethasone, and 50 ng/mL insulin, and incubated in a 96-well plastic plate (1.5×10^4 cells/well). The culture medium was replaced with a fresh culture medium containing D-galactosamine (0.5 mM) and lignans after 2-hour pre-incubation. TNF-α (100 ng/mL) was added to each well 30 minutes later. The hepatocytes viability was assessed 18 hours later by means of MTT(3-(4,5-dimethylthiazol-2-yl)-2,5-[…] bromide) colorimetric reaction.
The vertical axis of the graph represents cell viability in percentage. The bar of Normal is cell viability in the TNF-α-untreated culture medium. The bar of Control is cell viability in the test compound-untreated culture medium.
TAX, HYL, SIL, and ITX were treated at 200 μM, 100 μM, 50 μM, and 10 μM in the culture medium. Cell viability of each item is shown in the bar graphs.

[4] = test system: D-GalN/LPS-induced hepatic damage in mice; test: D-GalN/LPS-induced hepatic damage model; type: in vivo, mouse; conditions: for Histopathological observation of hepatic cells (apoptosis): 8 hours after the injection of D-GalN/LPS, compared with control group; for GOT level in blood serum / GPT level in blood serum / TNF-α level in blood serum: ddY mice, subcutaneous 10 mg/kg and 50 mg/kg; for GOT level in blood serum / GPT level in blood serum: 12 h and 1 h before D-GalN/LPS, measured 8 hours after injection; for TNF-α level in blood serum: measured 90 minutes after D-GalN/LPS injection, ELISA
Procedure: Evaluation by D-galactosamine (hereinafter called “D-GalN”)/Lipopolysaccharide (hereinafter called “LPS”)-induced hepatic damage model (J. Wang et al., Biochem. Pharm., 39, 267 (1990), A. Wendel et al., Biochem. Pharm., 35, 2115 (1986))
Male mice of ddY strains (age: 6 weeks) kept fast for 12 hours, and then hepatic damage was induced in the mice by injecting D-GalN (700 mg/kg)/LPS (10 μg/kg) into their abdominal cavity. Test compounds were given subcutaneously to the mice 2 times: 12 hours and 1 hour before the injection of D-GalN/LPS. They were arranged into 2 groups which were given test compounds: a group in a dose of 50 mg/kg (weight of rat), and a group in a dose of 10 mg/kg (weight of rat). There were also a control group which was given normal saline solution and a group which was given silymarin, a known hepatoprotective agent, (subcutaneous administration in a dose of 100 mg/kg) for comparison of medicinal benefits.
Tumor necrosis factor alpha (hereinafter called “TNF-α”) level in the blood was measured 90 minutes after the injection of D-GalN/LPS. Furthermore, levels of GPT (glutamic-pyruvic transaminase) and GOT (glutamic oxaloacetic transaminase) in the blood were measured 8 hours after the injection.
TNF-α level was measured by means of the ELISA method using an anti-mouse TNF-α antibody (manufactured by Endogen, Inc., USA), and levels of GPT and GOT were measured by using a Transaminase CII-Test kit (manufactured by Wako Pure Chemical Industries, Ltd.).
The hepatic damage mechanism induced in this damage model is thought to have high correlativity with clinical results as a model of immunological hepatic damage outbreak because of a series of process such as activation of cells involved in immunity, infiltration into hepatic tissues, secretion of cytokine and autocoid such as leukotriene D4 and TNF-α, and apoptosis of hepatic cells.

[5] = test system: diabetic rats induced by injecting STZ; test: Decrease activity in blood glucose level in STZ-induced diabetic rats; type: in vivo, rat; conditions: STZ diabetic Wistar rats; for Reduction of blood glucose level: 10 mg/kg into abdominal cavity 5 times at 12 h intervals (positive control: tolbutamide 200 mg/kg + buformin 1 mg/kg)
Procedure: Activities of compounds of lignans and hongdoushan fractions in decreasing blood glucose level were assessed by using rats.
Blood serums were obtained after the blood cell separation of the whole blood samples collected from the rats. Measurement of the blood glucose level was carried out by using the blood serum, a Glucose CII-TEST WAKO (manufactured by Wako Pure Chemical Industries, Ltd.) as a reagent and a UV-160A (manufactured by Shimadzu Corporation) as an instrument for absorbance measurement.
Male rats of Wistar strains (age: 5-6 weeks, weight: 180-200 g) kept fast for 16 hours. Then, citrate buffer solution (pH 4.2) of streptozocin (hereinafter called “STZ”) was injected into the rats' abdominal cavity in a dose of 55 mg/kg (weight of rat). Blood samples were taken from the tail vein of the rats 5 days after the injection, to measure blood glucose level. Rats with blood glucose level higher than 250 mg/dL were considered to be diabetic and were used for the tests.
Compounds or fractions were injected into the abdominal cavity of the diabetic rats in a dose of 10 mg/kg (weight of rat) 5 times at intervals of 12 hours. Blood samples were taken from the tail veins of the rats to measure the blood glucose level. Averages and standard deviations of measured values were calculated for groups, each of which had 4 rats. The groups included a negative control group, which was given normal saline solution, and a positive control group of said diabetic rats, which were given a mixture of tolbutamide in a dose of 200 mg/kg (weight of rat) and buformin in a dose of 1 mg/kg (weight of rat) through their abdominal cavity.

[6] = DPPH free radical scavenging activity; conditions: DPPH 60 μM ethanol solution, 30 minutes room temperature, absorbance 520 nm
Procedure: 500 μL of each test compound dissolved in ethanol or aqueous solution was mixed with 500 μL of DPPH (1,1-diphenyl 1-2-picrylhydrazyl) ethanol solution (concentration: 60 μM). The mixtures were left at room temperature for 30 minutes, and then their absorbance was measured at 520 nm. The measurements were carried out for each test compound at different concentrations.

Row | Structure (SMILES) | IC50 [1] | IC50 [2] | Cell viability [3] | Antiproliferative activity against HT-1080 (in words) [1] | Histopathological observation of hepatic cells (apoptosis) [4] | GOT level in blood serum [4] | GPT level in blood serum [4] | TNF-α level in blood serum [4] | Antiproliferative activity against Colon 26-L5 (in words) [2] | Reduction of blood glucose level [5] | Blood glucose level After administration ([5]; after 10 mg/kg into abdominal cavity 5 times at 12 h intervals (positive control: tolbutamide 200 mg/kg + buformin 1 mg/kg), mean ± SD) | Blood glucose level Before administration ([5]; before administration, mean ± SD, 4 rats) | ED50 DPPH free radical scavenging [6]
1 | O=c1[nH]cc(F)c(=O)[nH]1 [5-Fluorouracil, reference compound] | 0.29 µg/mL (≈ 2.23 µM) | 0.07 µg/mL (≈ 0.538 µM) |  |  |  |  |  |  |  |  |  |  | 
2 | O=C(O)/C=C/c1ccc(O)c(O)c1 [Caffeic Acid] |  |  |  |  |  |  |  |  |  |  |  |  | 5.41 µg/mL (≈ 30 µM)
3 | COc1cc([C@H]2OC[C@H]([C@@H](O)c3ccc(O)c(OC)c3)[C@@H]2CO)ccc1O [HYL, (7′R)-7′-Hydroxylariciresinol] | > 100 µg/mL | > 100 µg/mL | results similar to that of TAX |  |  | inhibit the increase | inhibit the increase | inhibit the increase |  |  |  |  | 

More lines, main results first:

Row | IC50 [1] | IC50 [2] | Structure (SMILES) | Cell viability [3] | Antiproliferative activity against HT-1080 (in words) [1] | Histopathological observation of hepatic cells (apoptosis) [4] | GOT level in blood serum [4] | GPT level in blood serum [4] | TNF-α level in blood serum [4] | Antiproliferative activity against Colon 26-L5 (in words) [2] | Reduction of blood glucose level [5] | Blood glucose level After administration ([5]; after 10 mg/kg into abdominal cavity 5 times at 12 h intervals (positive control: tolbutamide 200 mg/kg + buformin 1 mg/kg), mean ± SD) | Blood glucose level Before administration ([5]; before administration, mean ± SD, 4 rats) | ED50 DPPH free radical scavenging [6]
4 | 43.8 µg/mL (≈ 126 µM) | 36.5 µg/mL (≈ 105 µM) | COc1cc2c(cc1O)[C@H](c1ccc(O)c(O)c1)[C@@H](CO)[C@H](CO)C2 [ITX, Isotaxiresinol] | results similar to that of TAX | showed antiproliferative activity | less apoptosis corpuscles in the cells and less concentrated chromatins in the cell nucleuses | inhibit the increase | inhibit the increase | inhibit the increase | showed antiproliferative activity | 23.6% |  |  | 
5 | 62.2 µg/mL (≈ 180 µM) | 35.2 µg/mL (≈ 102 µM) | COc1cc(C[C@H]2CO[C@H](c3ccc(O)c(O)c3)[C@H]2CO)ccc1O [TAX, Taxiresinol] | increased cell viability considerably in a dose-dependent manner | showed antiproliferative activity |  | inhibit the increase | inhibit the increase | inhibit the increase | showed antiproliferative activity | 20.9% | 250.2 ± 35.5 mg/dL | 316.1 ± 19.9 mg/dL | 
6 | 5.9 µg/mL (≈ 16.3 µM) | 60.2 µg/mL (≈ 166 µM) | COc1cc(C[C@@H](CO)[C@H](CO)Cc2ccc(O)c(OC)c2)ccc1O [SIL, Secoisolariciresinol] | results similar to that of TAX | noticeable antiproliferative activity | less apoptosis corpuscles in the cells and less concentrated chromatins in the cell nucleuses | inhibit the increase | inhibit the increase | inhibit the increase |  | 33.4% |  |  | 
